# Data: patent publication US10087185B2 (Janssen Pharmaceutica NV, priority 2016, dated 2018)
# Molecular target: TARP γ8 dependent AMPA receptor (GRIA1o-CACNG8 fusion construct) (Homo sapiens (Human), UniProt P42261+Q8WXS5)
# Assay: Calcium flux assay (FLIPR), inhibition of glutamate response of GluA1o-γ8 channel
# Assay type: cell-based
# Conditions: HEK293 cells stably expressing GRIA1o-CACNG8 fusion; calcium flux after 15 μM glutamate; negative log of the IC50 in molar
# Excerpt: This assay was used to test compounds for their ability to inhibit TARP γ8 dependent AMPA receptor activity. The AMPA receptor is a non-selective cation channel activated by glutamate. […] But, this desensitization is incomplete, and a substantial steady-state current remains in the sustained presence of glutamate (Cho et al. (2007). “Two families of TARP isoforms that have distinct effects on the kinetic properties of AMPA receptors and synaptic currents.” Neuron 55(6): 890-904).
# An in vitro assay was used to determine the potency of test compounds as inhibitors of the glutamate response of the channel formed by GluA10-γ8. To ensure a 1:1 stoichiometry of GluA1o and γ8 subunits in the expressed channel, a fusion of the cDNAs for GRIA1o and CACNG8 was used. Following Shi et al (2009) “The stoichiometry of AMPA receptors and TARPs varies by neuronal cell type.” Neuron 62(5): 633-640), the C-terminus of the cDNA for GRIA1o was fused to the N-terminus of the cDNA for γ8. The linker sequence was […]. Channels expressed with this construct appear to have similar properties to channels formed by co-expression of GRIA1o with an excess of CACNG8 (Shi et al. 2009). A clonal cell line in HEK293 cells stably expressing this construct, with a geneticin selection marker, was generated for use in this assay.
# Cell expressing the GRIA1o-CACNG8 fusion construct were grown in a monolayer in 96- or 384-well microtiter plates. They were washed with assay buffer (135 mM NaCl, 4 mM KCl, 3 mM CaCl2, 1 mM MgCl2, 5 mM glucose, 10 mM HEPES, pH 7.4, 300 mOs) using a Biotek EL405 plate washer. The cells were then loaded with a calcium-sensitive dye (Calcium-5 or Calcium-6, Molecular Devices) and the test compounds at a range of concentrations. Calcium flux following the addition of 15 μM glutamate was monitored using a Molecular Devices FLIPR Tetra.
# The fluorescence in each well was normalized to the fluorescence of negative and positive control wells. The negative control wells had no added compounds, and the positive control wells had been incubated with 10 μM CP465022 (a non-subtype-selective AMPA receptor antagonist) (Lazzaro et al. (2002). “Functional characterization of CP-465,022, a selective, noncompetitive AMPA receptor antagonist.” Neuropharmacology 42(2): 143-153). The responses to glutamate as functions of the test compound concentrations were fitted to a four-parameter logistic function. The fitted parameter corresponding to the midpoint was taken to be the potency of inhibition of the compound. The data in Table 4 below illustrates the observed potency for the compounds described herein. pIC50 refers to the negative log of the IC50 in molar.
# TARP γ8 dependent AMPA receptor (GRIA1o-CACNG8 fusion construct), sequence (P42261 other isoform, or with tags, fused parts or gaps): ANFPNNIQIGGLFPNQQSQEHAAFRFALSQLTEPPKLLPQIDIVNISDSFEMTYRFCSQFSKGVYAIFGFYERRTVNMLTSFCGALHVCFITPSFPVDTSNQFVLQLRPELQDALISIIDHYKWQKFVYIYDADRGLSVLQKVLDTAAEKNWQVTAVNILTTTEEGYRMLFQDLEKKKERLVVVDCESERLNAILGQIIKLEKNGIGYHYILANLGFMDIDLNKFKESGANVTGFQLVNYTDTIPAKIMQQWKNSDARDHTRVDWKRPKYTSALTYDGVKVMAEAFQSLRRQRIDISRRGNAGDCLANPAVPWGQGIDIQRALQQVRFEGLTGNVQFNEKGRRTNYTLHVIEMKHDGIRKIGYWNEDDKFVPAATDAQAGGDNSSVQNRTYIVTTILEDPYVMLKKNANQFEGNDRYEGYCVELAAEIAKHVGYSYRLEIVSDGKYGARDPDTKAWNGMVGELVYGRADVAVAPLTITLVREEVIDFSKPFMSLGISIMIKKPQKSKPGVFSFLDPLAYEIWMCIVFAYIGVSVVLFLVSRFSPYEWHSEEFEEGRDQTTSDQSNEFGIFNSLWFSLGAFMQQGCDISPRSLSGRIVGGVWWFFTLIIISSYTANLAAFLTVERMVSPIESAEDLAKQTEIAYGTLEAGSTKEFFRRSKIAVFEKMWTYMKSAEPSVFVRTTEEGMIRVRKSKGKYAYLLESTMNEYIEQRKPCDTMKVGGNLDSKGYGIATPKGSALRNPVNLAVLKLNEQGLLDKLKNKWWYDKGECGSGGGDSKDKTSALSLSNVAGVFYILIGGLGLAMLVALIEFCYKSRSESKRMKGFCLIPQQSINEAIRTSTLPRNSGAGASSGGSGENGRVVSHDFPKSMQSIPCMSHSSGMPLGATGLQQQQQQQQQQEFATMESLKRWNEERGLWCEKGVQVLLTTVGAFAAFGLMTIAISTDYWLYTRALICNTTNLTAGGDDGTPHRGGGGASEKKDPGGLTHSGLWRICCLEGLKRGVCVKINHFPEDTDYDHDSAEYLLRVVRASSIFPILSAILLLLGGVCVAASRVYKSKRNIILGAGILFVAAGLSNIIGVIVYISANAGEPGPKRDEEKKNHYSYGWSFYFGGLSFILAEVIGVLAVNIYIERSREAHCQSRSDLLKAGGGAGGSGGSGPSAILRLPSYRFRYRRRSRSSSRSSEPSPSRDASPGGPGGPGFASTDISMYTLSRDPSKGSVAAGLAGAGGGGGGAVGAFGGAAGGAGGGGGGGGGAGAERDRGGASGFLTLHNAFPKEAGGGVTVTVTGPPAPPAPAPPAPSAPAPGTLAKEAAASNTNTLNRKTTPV
row,IC50,Structure (SMILES)
1,0.0794 nM,"FC(F)(F)c1nc2ccc(C(F)(F)F)c(-c3cc(Cl)c4[nH]ncc4c3)n2n1 [Example 1, 5-(7-Chloro-1H-indazol-5-yl)-2,6-bis(trifluoromethyl)-[1,2,4]triazolo[1,5-a]pyridine]"
2,0.2 nM,"Cc1cc(-c2c(C(F)(F)F)ccc3nc(C(F)(F)F)nn23)cc2cn[nH]c12 [Example 2, 5-(7-Methyl-1H-indazol-5-yl)-2,6-bis(trifluoromethyl)-[1,2,4]triazolo[1,5-a]pyridine]"
3,0.251 nM,"O=C1Cc2cc(-c3c(C(F)(F)F)ccc4nc(C(F)(F)F)nn34)cc(Cl)c2N1 [Example 3, 5-(2,6-Bis(trifluoromethyl)-[1,2,4]triazolo[1,5-a]pyridin-5-yl)-7-chloroindolin-2-one]"
4,0.501 nM,"Cc1cc(-c2c(C(F)(F)F)ccc3nc(C(F)(F)F)nn23)cc2c1NC(=O)C2 [Example 4, 5-(2,6-Bis(trifluoromethyl)-[1,2,4]triazolo[1,5-a]pyridin-5-yl)-7-methylindolin-2-one]"
5,0.316 nM,"FC(F)(F)c1nc2c(Cl)cc(C(F)(F)F)c(-c3cc(Cl)c4[nH]ncc4c3)n2n1 [Example 5, 8-Chloro-5-(7-chloro-1H-indazol-5-yl)-2,6-bis(trifluoromethyl)-[1,2,4]triazolo[1,5-a]pyridine]"
6,0.2 nM,"Cc1cc(C(F)(F)F)c(-c2cc(Cl)c3[nH]ncc3c2)n2nc(C(F)(F)F)nc12 [Example 6, 5-(7-Chloro-1H-indazol-5-yl)-8-methyl-2,6-bis(trifluoromethyl)-[1,2,4]triazolo[1,5-a]pyridine]"
7,0.0631 nM,"FC(F)c1nc2ccc(C(F)(F)F)c(-c3cc(Cl)c4[nH]ncc4c3)n2n1 [Example 7, 5-(7-Chloro-1H-indazol-5-yl)-2-(difluoromethyl)-6-(trifluoromethyl)-[1,2,4]triazolo[1,5-a]pyridine]"
8,0.398 nM,"Cc1cc(-c2c(C(F)(F)F)ccc3nc(C(F)F)nn23)cc2cn[nH]c12 [Example 8, 5-(7-Methyl-1H-indazol-5-yl)-2-(difluoromethyl)-6-(trifluoromethyl)-[1,2,4]triazolo[1,5-a]pyridine]"
9,0.398 nM,"O=C1Cc2cc(-c3c(C(F)(F)F)ccc4nc(C(F)F)nn34)cc(Cl)c2N1 [Example 9, 7-Chloro-5-(2-(difluoromethyl)-6-(trifluoromethyl)-[1,2,4]triazolo[1,5-a]pyridin-5-yl)indolin-2-one]"
10,0.794 nM,"Cc1cc(-c2c(C(F)(F)F)ccc3nc(C(F)F)nn23)cc2c1NC(=O)C2 [Example 10, 7-Methyl-5-(2-(difluoromethyl)-6-(trifluoromethyl)-[1,2,4]triazolo[1,5-a]pyridin-5-yl)indolin-2-one]"
11,0.158 nM,"FC(F)c1nc2ccc(C(F)(F)F)c(-c3cc(C(F)(F)F)c4[nH]ncc4c3)n2n1 [Example 11, 2-(Difluoromethyl)-6-(trifluoromethyl)-5-(7-(trifluoromethyl)-1H-indazol-5-yl)-[1,2,4]triazolo[1,5-a]pyridine]"
12,5.01 nM,"COc1cc(-c2c(C(F)(F)F)ccc3nc(C(F)F)nn23)cc2c1NC(=O)C2 [Example 12, 5-(2-(Difluoromethyl)-6-(trifluoromethyl)-[1,2,4]triazolo[1,5-a]pyridin-5-yl)-7-methoxyindolin-2-one]"
13,5.01 nM,"COc1ccc2nc(C(F)F)nn2c1-c1cc(Cl)c2[nH]ncc2c1 [Example 13, 5-(7-Chloro-1H-indazol-5-yl)-2-(difluoromethyl)-6-methoxy-[1,2,4]triazolo[1,5-a]pyridine]"
14,5.01 nM,"COc1ccc2nc(C(F)F)nn2c1-c1cc(C)c2[nH]ncc2c1 [Example 14, 2-(Difluoromethyl)-6-methoxy-5-(7-methyl-1H-indazol-5-yl)-[1,2,4]triazolo[1,5-a]pyridine]"
15,2 nM,"COc1ccc2nc(C(F)F)nn2c1-c1cc(C(F)(F)F)c2[nH]ncc2c1 [Example 15, 2-(Difluoromethyl)-6-methoxy-5-(7-(trifluoromethyl)-1H-indazol-5-yl)-[1,2,4]triazolo[1,5-a]pyridine]"
16,0.1 nM,"FC(F)c1ccc2nc(C(F)(F)F)nn2c1-c1cc(Cl)c2[nH]ncc2c1 [Example 16, 5-(7-Chloro-1H-indazol-5-yl)-6-(difluoromethyl)-2-(trifluoromethyl)-[1,2,4]triazolo[1,5-a]pyridine]"

row,IC50,Structure (SMILES)
1,0.158 nM,"Cc1cc(-c2c(C(F)F)ccc3nc(C(F)(F)F)nn23)cc2cn[nH]c12 [Example 17, 6-(Difluoromethyl)-5-(7-methyl-1H-indazol-5-yl)-2-(trifluoromethyl)-[1,2,4]triazolo[1,5-a]pyridine]"
2,0.251 nM,"O=C1Cc2cc(-c3c(C(F)F)ccc4nc(C(F)(F)F)nn34)cc(Cl)c2N1 [Example 18, 7-Chloro-5-(6-(difluoromethyl)-2-(trifluoromethyl)-[1,2,4]triazolo[1,5-a]pyridin-5-yl)indolin-2-one]"
3,0.631 nM,"Cc1cc(-c2c(C(F)F)ccc3nc(C(F)(F)F)nn23)cc2c1NC(=O)C2 [Example 19, 5-[6-(Difluoromethyl)-2-(trifluoromethyl)-[1,2,4]triazolo[1,5-a]pyridin-5-yl]-7-methyl-indolin-2-one]"
4,2.51 nM,"COc1cc(-c2c(C(F)F)ccc3nc(C(F)(F)F)nn23)cc2c1NC(=O)C2 [Example 20, 5-[6-(Difluoromethyl)-2-(trifluoromethyl)-[1,2,4]triazolo[1,5-a]pyridin-5-yl]-7-methoxy-indolin-2-one]"
5,0.631 nM,"Cc1nc2ccc(C(F)(F)F)c(-c3cc(Cl)c4[nH]ncc4c3)n2n1 [Example 21, 5-(7-Chloro-1H-indazol-5-yl)-2-methyl-6-(trifluoromethyl)-[1,2,4]triazolo[1,5-a]pyridine]"
6,12.6 nM,"Cc1nc2ccc(C(F)(F)F)c(-c3cc(C)c4[nH]ncc4c3)n2n1 [Example 22, 2-Methyl-5-(7-methyl-1H-indazol-5-yl)-6-(trifluoromethyl)-[1,2,4]triazolo[1,5-a]pyridine]"
7,10 nM,"Cc1nc2ccc(C(F)(F)F)c(-c3cc(Cl)c4c(c3)CC(=O)N4)n2n1 [Example 23, 7-Chloro-5-(2-methyl-6-(trifluoromethyl)-[1,2,4]triazolo[1,5-a]pyridin-5-yl)indolin-2-one]"
8,20 nM,"Cc1nc2ccc(C(F)(F)F)c(-c3cc(C)c4c(c3)CC(=O)N4)n2n1 [Example 24, 7-Methyl-5-(2-methyl-6-(trifluoromethyl)-[1,2,4]triazolo[1,5-a]pyridin-5-yl)indolin-2-one]"
9,0.398 nM,"CCc1nc2ccc(C(F)(F)F)c(-c3cc(Cl)c4[nH]ncc4c3)n2n1 [Example 25, 5-(7-Chloro-1H-indazol-5-yl)-2-ethyl-6-(trifluoromethyl)-[1,2,4]triazolo[1,5-a]pyridine]"
10,1 nM,"CCc1nc2ccc(C(F)(F)F)c(-c3cc(C)c4[nH]ncc4c3)n2n1 [Example 26, 2-Ethyl-5-(7-methyl-1H-indazol-5-yl)-6-(trifluoromethyl)-[1,2,4]triazolo[1,5-a]pyridine]"
11,1.26 nM,"CCc1nc2ccc(C(F)(F)F)c(-c3cc(Cl)c4c(c3)CC(=O)N4)n2n1 [Example 27, 7-Chloro-5-(2-ethyl-6-(trifluoromethyl)-[1,2,4]triazolo[1,5-a]pyridin-5-yl)indolin-2-one]"
12,3.98 nM,"CCc1nc2ccc(C(F)(F)F)c(-c3cc(C)c4c(c3)CC(=O)N4)n2n1 [Example 28, 5-(2-Ethyl-6-(trifluoromethyl)-[1,2,4]triazolo[1,5-a]pyridin-5-yl)-7-methylindolin-2-one]"
13,0.398 nM,"CCc1nc2c(Cl)cc(C(F)(F)F)c(-c3cc(Cl)c4[nH]ncc4c3)n2n1 [Example 29, 8-Chloro-5-(7-chloro-1H-indazol-5-yl)-2-ethyl-6-(trifluoromethyl)-[1,2,4]triazolo[1,5-a]pyridine]"
14,3.98 nM,"CCc1nc2c(Cl)cc(C(F)(F)F)c(-c3cc(C)c4[nH]ncc4c3)n2n1 [Example 30, 8-Chloro-2-ethyl-5-(7-methyl-1H-indazol-5-yl)-6-(trifluoromethyl)-[1,2,4]triazolo[1,5-a]pyridine]"
15,1.26 nM,"CCc1nc2c(F)cc(C(F)(F)F)c(-c3cc(Cl)c4[nH]ncc4c3)n2n1 [Example 31, 5-(7-Chloro-1H-indazol-5-yl)-2-ethyl-8-fluoro-6-(trifluoromethyl)-[1,2,4]triazolo[1,5-a]pyridine]"
